{
  "source": "patent US5236914A",
  "about": "“Derivatives of metalloporphyrins and application thereof for therapeutic purposes and in preparing hybrid molecules” (Centre National de la Recherche Scientifique (CNRS), priority 1988, dated 1993)",
  "key": {"[1]": {"system": "supercoiled form (form I) of the DNA of the bacteriophage OX 174", "assay": "nuclease activity: cleavage of supercoiled DNA observed by electrophoresis on agarose gel", "type": "biochemical", "conditions": "for Form I / Form II / Form III: 2 min with oxidant", "description": "In fact, only 13% of form I remains at the end of 2 min in the presence of 250 nM of the metalloporphyrin and 5 μM of potassium hydrogen persulfate, KHSO5. The cleavages are single-strandcleavages since the form II (circular duplex DNA with one cleavage) accumulates before being converted to form III (linear duplex DNA). The experimental conditions and the details of the analytical method are given in the reference Fouquet et al. (cf. page 1).\n1 μM of metalloporphyrin\npre-incubation time (DNA +\na) 20 min., b) 1 min. time of incubation"}, "L1210 cells": {"system": "L1210 cells", "assay": "cytotoxic activity on murine leukemia cells of the L1210 type (inhibition of cell growth)", "type": "cell-based", "conditions": "in vitro, only ID50 lower than 2 μM considered significant, read-out: ID50 (dose inhibiting 50% of cell growth)", "description": "The cytotoxic activity was determined on murine leukemia cells of the L1210 type according to a method already described (by C. Paoletti, S. Cros eta al., Chem. Bio. Interact, 25, 45 […]. The effect on cell growth is expressed in terms of the dose inhibiting 50% of cell growth (ID50). Only the values of ID50 lower than 2 μM can be considered as being significant from the biological point of view."}, "DNA": {"system": "DNA", "conditions": "in the presence of ferric ions, molecular oxygen and reducers; cited from earlier work"}, "[2]": {"conditions": "250 nM metalloporphyrin; 5 μM KHSO5; pre-incubation a) 20 min"}, "[3]": {"conditions": "250 nM metalloporphyrin; 5 μM KHSO5; pre-incubation b) 1 min"}, "[4]": {"conditions": "1 μM metalloporphyrin; 5 μM KHSO5; pre-incubation a) 20 min"}},
  "note": "pIC50: −log10 of the molar value. “Also recorded” adds a separate entry of the source. Like-named read-outs stand apart in the source and are kept apart here.",
  "data": [
    {"molecule": "CC(=O)[O-].CC(=O)[O-].CC(=O)[O-].CC(=O)[O-].CC(=O)[O-].C[n+]1ccc(-c2c3nc(c(-c4cc[n+](C)cc4)c4ccc([n-]4)c(-c4cc[n+](C)cc4)c4nc(c(-c5ccc([N+](C)(C)C)cc5)c5ccc2[n-]5)C=C4)C=C3)cc1.[Mn+3]", "note": "[1 h) (Mn), Manganese (III) 5-(4-trimethylaminophenyl)-10, 15, 20-tris (N-methyl-4 pyridyl)-porphyrin pentaacetate]", "values": [
      {"measurement": "Form I", "setting": "[1]; [2]", "result": 13, "unit": "%"},
      {"measurement": "Form II", "setting": "[1]; [2]", "result": 78, "unit": "%"},
      {"measurement": "Form III", "setting": "[1]; [2]", "result": 9, "unit": "%"},
      {"measurement": "Form I", "setting": "[1]; [3]", "result": 63, "unit": "%"},
      {"measurement": "Form II", "setting": "[1]; [3]", "result": 37, "unit": "%"},
      {"measurement": "form I remaining at the end of 2 min", "setting": "[1]; 250 nM metalloporphyrin, 5 μM potassium hydrogen persulfate KHSO5", "result": 13, "unit": "%"},
      {"measurement": "Form II", "setting": "[1]; [4]", "result": 59, "unit": "%"},
      {"measurement": "Form III", "setting": "[1]; [4]", "result": 41, "unit": "%"},
      {"measurement": "efficacy of cleavage / nuclease activity in words", "setting": "[1]; DNA in vitro, listed as 1h", "result": "very marked; also recorded: single-strandcleavages"},
      {"measurement": "pIC50", "setting": "L1210 cells", "result": 6.27}
    ]},
    {"molecule": "COc1ccc2[nH]c3c(C)c4cc[n+](CCCCC(=O)O)cc4c(C)c3c2c1", "note": "[5 b), N^2-(4-carboxybutyl)-9-methoxy-ellipticinium chloride]", "values": [
      {"measurement": "pIC50", "setting": "L1210 cells; Mus musculus", "result": "< 4.64"}
    ]},
    {"molecule": "bleomycin", "values": [
      {"measurement": "nuclease activity in words", "setting": "DNA", "result": "high nuclease activity"}
    ]},
    {"molecule": "Manganese (III) 5-(4-hydroxyphenyl)-10, 15, 20-tris (N-methyl-4-pyridyl)-porphyrin tetraacetate [2 n) (Mn)]", "values": [
      {"measurement": "pIC50", "setting": "L1210 cells", "result": 6.17}
    ]}
  ]
}
